Test results published in patent US20230126711A1, “ENTERIC NITRERGIC NEURONS AND METHODS OF USING THE SAME” (The Regents of the University of California, priority 2020, published 2023).

Tested on: NOS1
Assay: Percentage of NO neurons in treated cultures by flow cytometry for NOS1
Type: cell-based, human
Conditions: flow cytometry for NOS1, compared to no treatment
Protocol: NO neurons quantified using flow cytometry for NOS1.
Option 1 (for 3-D Culture): • 30. On day 15, ENC spheroids are gathered in the center of the wells using a swirling motion and neural crest medium is removed using a P1000 micropipette in slow circular motion, avoiding the free-floating spheroids. • 31. Spheroids are fed with the same volume of ENC medium containing PP121 (1-5 μM), GDNF (10 ng/ml), ascorbic acid (100 μM), N2 supplement (10 μl/ml), B27 supplement (20 μl/ml), glutagro (10 μl/ml), and MEM NEAAs (10 μl/ml) in neurobasal medium. • 32. Cells are fed with ENC every other day until day 30-40, after which, feeding frequency can be reduced to once or twice a week but with a higher volume of medium.
Option 2 (for 2-D Culture): • 30. On day 15, ENC spheroids are gathered in the center of the wells using a swirling motion and neural crest medium is removed using a P1000 micropipette in slow circular motion, avoiding the free-floating spheroids. • 31. After washing the spheroids with PBS, accutase is added and plates are incubated for 30 minutes at 37° C. to dissociate the spheroids. • 32. Then, remaining spheroids are broken by pipetting ENC medium. • 33. ENC contains PP121 (1-5 μM), GDNF (10 ng/ml), ascorbic acid (100 μM), N2 supplement (10 μl/ml), B27 supplement (20 μl/ml), glutagro (10 μl/ml), and MEM NEAAs (10 μl/ml) in neurobasal medium. • 34. […]

| Molecule | percentage of NO neurons (NOS1 induction) |
| --- | --- |
| PDGF | reduced the percentage of NO neurons |
| Nc1ncnc2c1c(-c1cnc3[nH]ccc3c1)nn2C1CCCC1 [PP121] | enhances NOS1 induction efficiency |
